Among the data in the supplement of paper PMC12076712 are pIC50 values, retold here.

Test in all cases: pIC50, kinobeads binding competition
The target in one test is CSK (UniProt P41240). The method, boiled down:
(§1)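 pIC50 was obtained by fitting fold changes against vehicle to logistic dose-response curves with the R drc package, using biological duplicates. Kinobeads-bound proteins were digested and measured by TMT10 LC-MS/MS. Before this, either living Jurkat cells received nine compound concentrations (top 30 μM, 1:4 steps) for 60 min at 37 °C prior to lysis, or Jurkat lysate or a 1:1:1:1 HEK293/K-562/HepG2/placenta lysate mix received nine concentrations (top 30 μM, 1:5 steps) for 60 min at 4 °C.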

The next test concerns the target T1, UniProt O15530.
T1 sequence (whole entry): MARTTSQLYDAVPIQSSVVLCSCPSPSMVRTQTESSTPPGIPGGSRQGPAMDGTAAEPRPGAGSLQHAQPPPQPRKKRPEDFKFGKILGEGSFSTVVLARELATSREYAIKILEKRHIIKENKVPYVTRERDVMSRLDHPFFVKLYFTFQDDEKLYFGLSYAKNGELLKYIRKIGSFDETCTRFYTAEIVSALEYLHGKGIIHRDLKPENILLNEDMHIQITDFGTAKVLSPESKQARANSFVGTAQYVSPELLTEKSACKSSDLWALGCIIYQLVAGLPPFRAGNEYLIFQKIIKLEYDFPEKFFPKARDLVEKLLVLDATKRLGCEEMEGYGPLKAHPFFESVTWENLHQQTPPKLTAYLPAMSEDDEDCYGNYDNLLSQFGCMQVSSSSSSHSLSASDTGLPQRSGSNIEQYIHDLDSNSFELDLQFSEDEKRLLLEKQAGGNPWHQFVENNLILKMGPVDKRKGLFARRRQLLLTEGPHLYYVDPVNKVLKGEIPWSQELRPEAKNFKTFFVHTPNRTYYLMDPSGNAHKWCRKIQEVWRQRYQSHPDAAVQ
Put shortly: as §1

Another test deals with UniProt Q13233. Put shortly: as §1
In a further test the target is UniProt Q13164. The method, boiled down:
as §1

For another test, the target named is MAP4K4 (UniProt O95819). Put shortly:
as §1

For the next test, the target named is UniProt P27361. Put shortly:
as §1

In another test the target is MAST3 (UniProt O60307). Put shortly:
as §1

In the next test the target is FGFR2 (UniProt P21802). The following applies: cell material: Lysate mix. The method, boiled down: as §1
The target in the next test is TAOK3 (UniProt Q9H2K8). The method, boiled down: as §1
A further test concerns the target UniProt Q9HBH9. Put shortly:
as §1

For the next test, the target named is T2, UniProt Q99759.
T2 sequence (whole entry): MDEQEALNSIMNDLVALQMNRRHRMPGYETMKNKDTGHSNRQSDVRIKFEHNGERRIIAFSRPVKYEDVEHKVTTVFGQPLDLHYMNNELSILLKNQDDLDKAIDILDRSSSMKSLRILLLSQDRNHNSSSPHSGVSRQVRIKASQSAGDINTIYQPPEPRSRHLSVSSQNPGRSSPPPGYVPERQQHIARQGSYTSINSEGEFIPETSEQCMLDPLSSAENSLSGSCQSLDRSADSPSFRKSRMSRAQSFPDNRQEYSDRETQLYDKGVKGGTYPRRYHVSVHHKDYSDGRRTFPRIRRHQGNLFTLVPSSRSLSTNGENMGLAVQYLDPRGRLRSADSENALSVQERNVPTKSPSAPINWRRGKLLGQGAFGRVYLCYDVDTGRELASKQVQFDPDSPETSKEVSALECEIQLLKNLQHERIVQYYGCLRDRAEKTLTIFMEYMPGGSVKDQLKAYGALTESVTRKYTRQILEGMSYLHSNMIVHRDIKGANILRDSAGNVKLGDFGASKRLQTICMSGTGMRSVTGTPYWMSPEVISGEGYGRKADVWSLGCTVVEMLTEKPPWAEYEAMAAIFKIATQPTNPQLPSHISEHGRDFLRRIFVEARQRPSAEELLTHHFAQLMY
Put shortly: as §1

The next test deals with ROCK2 (UniProt O75116). The method, boiled down:
as §1

For a further test, the target named is T3, TNK1 (UniProt Q13470).
T3 sequence (whole entry): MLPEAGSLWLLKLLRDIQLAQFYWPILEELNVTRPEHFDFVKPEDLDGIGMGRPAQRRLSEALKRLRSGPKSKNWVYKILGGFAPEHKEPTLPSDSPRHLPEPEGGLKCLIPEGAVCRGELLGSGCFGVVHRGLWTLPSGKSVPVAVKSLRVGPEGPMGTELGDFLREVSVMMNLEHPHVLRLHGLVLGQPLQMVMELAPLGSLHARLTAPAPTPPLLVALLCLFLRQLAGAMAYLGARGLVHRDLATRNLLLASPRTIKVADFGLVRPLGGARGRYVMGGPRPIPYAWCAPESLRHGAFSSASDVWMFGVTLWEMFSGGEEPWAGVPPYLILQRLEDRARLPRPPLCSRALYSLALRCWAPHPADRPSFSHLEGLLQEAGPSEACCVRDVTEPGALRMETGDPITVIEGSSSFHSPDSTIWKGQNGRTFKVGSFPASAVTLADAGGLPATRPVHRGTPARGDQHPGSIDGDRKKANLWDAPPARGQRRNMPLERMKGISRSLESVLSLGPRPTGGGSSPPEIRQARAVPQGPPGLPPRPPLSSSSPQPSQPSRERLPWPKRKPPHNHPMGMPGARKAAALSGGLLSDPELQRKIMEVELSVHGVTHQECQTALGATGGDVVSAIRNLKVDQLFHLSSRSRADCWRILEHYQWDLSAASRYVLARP
The following applies: cell material: Lysate mix. The method, boiled down:
as §1

Chain of TAOK3 (Q9H2K8 whole entry, looked up): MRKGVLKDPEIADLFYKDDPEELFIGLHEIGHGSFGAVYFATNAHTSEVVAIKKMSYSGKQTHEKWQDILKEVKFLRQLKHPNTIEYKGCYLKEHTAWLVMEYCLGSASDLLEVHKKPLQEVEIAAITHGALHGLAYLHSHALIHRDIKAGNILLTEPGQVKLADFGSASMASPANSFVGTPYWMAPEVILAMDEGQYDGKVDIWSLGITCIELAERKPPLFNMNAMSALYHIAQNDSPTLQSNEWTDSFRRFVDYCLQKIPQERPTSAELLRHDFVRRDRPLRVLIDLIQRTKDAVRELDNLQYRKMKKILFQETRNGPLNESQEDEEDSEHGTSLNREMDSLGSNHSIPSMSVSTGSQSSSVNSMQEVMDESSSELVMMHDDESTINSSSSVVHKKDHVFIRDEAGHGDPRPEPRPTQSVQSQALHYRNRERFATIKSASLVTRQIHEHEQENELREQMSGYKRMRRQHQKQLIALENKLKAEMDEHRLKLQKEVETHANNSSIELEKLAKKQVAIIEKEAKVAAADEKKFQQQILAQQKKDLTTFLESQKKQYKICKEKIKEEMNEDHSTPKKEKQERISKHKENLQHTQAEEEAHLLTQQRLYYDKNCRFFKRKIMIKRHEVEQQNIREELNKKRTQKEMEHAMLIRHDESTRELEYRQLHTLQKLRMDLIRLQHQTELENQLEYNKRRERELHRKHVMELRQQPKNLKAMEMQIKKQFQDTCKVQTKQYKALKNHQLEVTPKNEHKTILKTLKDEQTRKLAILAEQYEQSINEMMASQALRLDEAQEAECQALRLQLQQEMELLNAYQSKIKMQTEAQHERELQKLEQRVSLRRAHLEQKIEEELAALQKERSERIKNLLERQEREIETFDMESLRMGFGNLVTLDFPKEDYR
Chain of UniProt Q13164 (Q13164 whole entry, looked up): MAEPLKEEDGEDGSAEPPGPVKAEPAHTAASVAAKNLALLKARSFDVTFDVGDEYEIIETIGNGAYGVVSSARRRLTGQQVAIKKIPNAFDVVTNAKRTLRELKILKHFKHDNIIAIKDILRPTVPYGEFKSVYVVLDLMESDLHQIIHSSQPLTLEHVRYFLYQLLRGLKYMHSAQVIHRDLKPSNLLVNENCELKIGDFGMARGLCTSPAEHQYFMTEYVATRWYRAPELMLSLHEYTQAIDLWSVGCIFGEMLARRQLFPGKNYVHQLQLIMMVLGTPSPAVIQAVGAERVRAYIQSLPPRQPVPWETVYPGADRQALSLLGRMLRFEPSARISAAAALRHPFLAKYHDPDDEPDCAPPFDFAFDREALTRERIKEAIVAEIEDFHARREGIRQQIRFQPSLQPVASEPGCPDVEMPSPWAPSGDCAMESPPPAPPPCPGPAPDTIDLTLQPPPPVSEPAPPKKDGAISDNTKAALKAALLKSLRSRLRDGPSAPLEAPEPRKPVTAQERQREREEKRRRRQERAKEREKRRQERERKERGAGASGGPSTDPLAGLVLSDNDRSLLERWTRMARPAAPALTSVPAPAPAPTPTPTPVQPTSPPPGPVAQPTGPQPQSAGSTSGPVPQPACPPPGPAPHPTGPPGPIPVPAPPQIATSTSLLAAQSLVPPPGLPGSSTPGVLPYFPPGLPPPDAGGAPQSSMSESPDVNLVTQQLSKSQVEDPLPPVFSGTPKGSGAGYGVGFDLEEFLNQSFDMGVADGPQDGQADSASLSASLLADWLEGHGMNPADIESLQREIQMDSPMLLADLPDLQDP
Chain of CSK (P41240 whole entry, looked up): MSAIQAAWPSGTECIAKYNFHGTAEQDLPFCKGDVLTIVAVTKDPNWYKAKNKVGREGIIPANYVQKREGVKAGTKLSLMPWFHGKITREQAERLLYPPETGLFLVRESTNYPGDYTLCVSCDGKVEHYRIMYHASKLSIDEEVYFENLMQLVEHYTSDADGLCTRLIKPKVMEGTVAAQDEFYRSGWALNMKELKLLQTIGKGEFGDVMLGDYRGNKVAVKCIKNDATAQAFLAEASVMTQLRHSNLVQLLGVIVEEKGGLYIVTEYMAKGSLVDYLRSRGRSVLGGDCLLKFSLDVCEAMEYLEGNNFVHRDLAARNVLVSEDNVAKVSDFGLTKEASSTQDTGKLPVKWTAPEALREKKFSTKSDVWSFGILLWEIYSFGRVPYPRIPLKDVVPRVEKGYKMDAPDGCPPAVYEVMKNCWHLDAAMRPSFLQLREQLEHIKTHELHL
Chain of MAP4K4 (O95819 whole entry, looked up): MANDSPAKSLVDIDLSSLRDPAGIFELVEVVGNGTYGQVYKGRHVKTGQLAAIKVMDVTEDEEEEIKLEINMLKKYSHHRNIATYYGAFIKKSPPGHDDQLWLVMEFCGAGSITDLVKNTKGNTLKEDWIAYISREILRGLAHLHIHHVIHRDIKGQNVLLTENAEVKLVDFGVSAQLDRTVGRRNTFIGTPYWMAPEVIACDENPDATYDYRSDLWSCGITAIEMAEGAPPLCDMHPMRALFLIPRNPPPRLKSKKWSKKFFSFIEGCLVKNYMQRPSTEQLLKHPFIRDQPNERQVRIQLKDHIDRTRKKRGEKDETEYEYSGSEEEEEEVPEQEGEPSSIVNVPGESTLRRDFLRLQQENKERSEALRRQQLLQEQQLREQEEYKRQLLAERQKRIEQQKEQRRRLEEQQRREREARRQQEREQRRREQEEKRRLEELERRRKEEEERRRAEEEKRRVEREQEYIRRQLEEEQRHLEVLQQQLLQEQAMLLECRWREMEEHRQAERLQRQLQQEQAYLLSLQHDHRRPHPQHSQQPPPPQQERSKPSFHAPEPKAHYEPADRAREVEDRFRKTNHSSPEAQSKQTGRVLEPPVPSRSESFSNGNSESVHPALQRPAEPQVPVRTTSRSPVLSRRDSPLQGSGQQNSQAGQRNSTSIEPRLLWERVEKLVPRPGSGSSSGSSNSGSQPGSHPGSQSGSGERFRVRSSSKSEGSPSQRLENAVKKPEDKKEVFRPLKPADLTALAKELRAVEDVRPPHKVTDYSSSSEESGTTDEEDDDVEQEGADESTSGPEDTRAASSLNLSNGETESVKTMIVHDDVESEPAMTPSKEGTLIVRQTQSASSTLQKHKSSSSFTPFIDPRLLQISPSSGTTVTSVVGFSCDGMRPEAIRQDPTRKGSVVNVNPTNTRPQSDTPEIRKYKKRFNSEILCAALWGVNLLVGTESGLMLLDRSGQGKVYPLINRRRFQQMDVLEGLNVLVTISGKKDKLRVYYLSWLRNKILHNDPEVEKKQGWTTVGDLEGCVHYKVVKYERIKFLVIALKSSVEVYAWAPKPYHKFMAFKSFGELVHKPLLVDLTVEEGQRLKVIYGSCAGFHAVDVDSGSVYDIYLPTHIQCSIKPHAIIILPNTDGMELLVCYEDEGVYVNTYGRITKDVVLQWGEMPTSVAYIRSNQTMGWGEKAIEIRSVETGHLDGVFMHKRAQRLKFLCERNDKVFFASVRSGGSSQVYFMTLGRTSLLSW
Chain of FGFR2 (P21802 whole entry, looked up): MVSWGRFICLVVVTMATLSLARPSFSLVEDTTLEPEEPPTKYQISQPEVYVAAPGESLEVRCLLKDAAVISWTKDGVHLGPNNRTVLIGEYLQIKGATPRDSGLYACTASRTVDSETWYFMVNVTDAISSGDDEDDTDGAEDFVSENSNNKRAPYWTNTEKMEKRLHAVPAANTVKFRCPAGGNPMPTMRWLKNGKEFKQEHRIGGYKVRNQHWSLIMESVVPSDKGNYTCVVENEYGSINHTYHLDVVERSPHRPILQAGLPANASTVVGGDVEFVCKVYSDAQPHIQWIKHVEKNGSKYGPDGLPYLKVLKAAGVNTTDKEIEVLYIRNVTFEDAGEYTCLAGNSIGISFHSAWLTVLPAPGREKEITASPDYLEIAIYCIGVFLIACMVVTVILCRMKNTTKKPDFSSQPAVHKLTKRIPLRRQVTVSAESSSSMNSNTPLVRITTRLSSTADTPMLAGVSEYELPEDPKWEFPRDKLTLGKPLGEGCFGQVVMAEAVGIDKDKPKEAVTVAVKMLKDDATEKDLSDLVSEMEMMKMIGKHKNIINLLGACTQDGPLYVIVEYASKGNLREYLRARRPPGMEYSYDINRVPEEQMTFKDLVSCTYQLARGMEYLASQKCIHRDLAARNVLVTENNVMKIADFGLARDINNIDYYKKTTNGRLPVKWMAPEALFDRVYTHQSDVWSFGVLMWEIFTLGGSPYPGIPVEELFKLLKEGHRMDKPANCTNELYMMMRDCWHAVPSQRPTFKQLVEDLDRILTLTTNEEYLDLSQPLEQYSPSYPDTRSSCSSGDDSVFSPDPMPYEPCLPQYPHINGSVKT
Chain of UniProt P27361 (P27361 whole entry): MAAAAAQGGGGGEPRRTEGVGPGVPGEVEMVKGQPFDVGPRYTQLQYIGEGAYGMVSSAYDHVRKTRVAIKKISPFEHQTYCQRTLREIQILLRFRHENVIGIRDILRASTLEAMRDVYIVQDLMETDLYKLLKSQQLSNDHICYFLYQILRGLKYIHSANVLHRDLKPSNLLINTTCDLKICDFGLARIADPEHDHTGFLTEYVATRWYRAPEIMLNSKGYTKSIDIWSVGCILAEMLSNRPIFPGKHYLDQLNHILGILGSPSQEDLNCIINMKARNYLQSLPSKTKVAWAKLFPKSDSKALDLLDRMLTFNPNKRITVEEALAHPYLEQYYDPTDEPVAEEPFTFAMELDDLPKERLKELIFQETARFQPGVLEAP
Chain of UniProt Q9HBH9 (Q9HBH9 whole entry, looked up): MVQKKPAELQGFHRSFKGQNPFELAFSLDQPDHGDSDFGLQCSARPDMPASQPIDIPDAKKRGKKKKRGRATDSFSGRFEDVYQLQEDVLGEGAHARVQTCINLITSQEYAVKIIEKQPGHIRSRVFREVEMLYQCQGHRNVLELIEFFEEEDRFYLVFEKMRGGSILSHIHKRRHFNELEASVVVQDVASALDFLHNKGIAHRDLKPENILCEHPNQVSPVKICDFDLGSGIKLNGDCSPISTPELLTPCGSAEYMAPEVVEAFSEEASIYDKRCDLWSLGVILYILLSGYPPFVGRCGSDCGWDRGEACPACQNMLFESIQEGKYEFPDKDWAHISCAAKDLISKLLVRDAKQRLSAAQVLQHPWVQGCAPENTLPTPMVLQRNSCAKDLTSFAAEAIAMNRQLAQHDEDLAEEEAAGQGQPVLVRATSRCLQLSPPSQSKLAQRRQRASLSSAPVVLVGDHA

`O=C(NCCNC(=O)c1cc(Nc2cc(C3CC3)[nH]n2)nc(N2CCN(Cc3ccc(S(=O)(=O)F)cc3)CC2)n1)OC1CC/C=C/CCC1` (centres undefined): the pIC50 at CSK (cell material: Jurkat cells), at CSK (cell material: Jurkat lysate), on CSK (cell material: Lysate mix), on UniProt O15530 (cell material: Jurkat lysate), on UniProt O15530 (cell material: Lysate mix) and at UniProt Q13233 (cell material: Jurkat cells) was less than 4.52 in each case. Besides, the pIC50 (commonly the IC50 on a negative log10 scale, so that one unit is a factor of ten) at UniProt Q13233 (cell material: Jurkat lysate) is less than 4.52; at UniProt Q13233 (cell material: Lysate mix), less than 4.52; at UniProt Q13164 (cell material: Jurkat cells) it was 4.92; at UniProt Q13164 (cell material: Jurkat lysate), less than 4.52; at UniProt Q13164 (cell material: Lysate mix) it was less than 4.52; at MAP4K4 (cell material: Jurkat cells), 5.15. For the same compound, the pIC50 on MAP4K4 (cell material: Jurkat lysate) was less than 4.52; on MAP4K4 (cell material: Lysate mix), less than 4.52; at UniProt P27361 (cell material: Jurkat lysate), less than 4.52; at UniProt P27361 (cell material: Lysate mix) it was less than 4.52; at MAST3 (cell material: Jurkat cells), 6.5; on MAST3 (cell material: Jurkat lysate) it was 5.06. Moreover, the pIC50 was 4.9 at MAST3 (cell material: Lysate mix); less than 4.52 at FGFR2; 6.22 on TAOK3 (cell material: Jurkat cells); 5.61 at TAOK3 (cell material: Jurkat lysate); 5.55 on TAOK3 (cell material: Lysate mix); less than 4.52 at UniProt Q9HBH9 (cell material: Jurkat lysate). The negative logarithm of the IC50 (pIC50) at UniProt Q9HBH9 (cell material: Lysate mix) was less than 4.52; at UniProt Q99759 (cell material: Jurkat cells), 4.88; at UniProt Q99759 (cell material: Jurkat lysate) it was less than 4.52; on UniProt Q99759 (cell material: Lysate mix) it was less than 4.52; at ROCK2 (cell material: Jurkat cells), less than 4.52; on ROCK2 (cell material: Lysate mix) it was less than 4.52. For the same compound, on TNK1, the pIC50 came out at 5.44.

Consider `Cc1cc(Nc2cc(C(=O)NCCNC(=O)OC3CC/C=C/CCC3)nc(N3CCN(Cc4ccc(S(=O)(=O)F)cc4)CC3)n2)n[nH]1` (centres undefined), for which the pIC50 at CSK (cell material: Lysate mix), at UniProt O15530 (cell material: Lysate mix), on UniProt Q13233 (cell material: Lysate mix), on UniProt Q13164 (cell material: Lysate mix), at MAP4K4 (cell material: Lysate mix) and on UniProt P27361 (cell material: Lysate mix) was less than 4.52 in each case. In addition, the pIC50 at MAST3 (cell material: Lysate mix) is 4.84; at FGFR2, less than 4.52; at TAOK3 (cell material: Lysate mix) it was 6.03; at UniProt Q9HBH9 (cell material: Lysate mix), less than 4.52; on UniProt Q99759 (cell material: Lysate mix), less than 4.52; at ROCK2 (cell material: Lysate mix) it was less than 4.52. The pIC50 at TNK1 was determined as 4.8.

Take `CCNC(=O)c1cc(Nc2cc(C)[nH]n2)nc(N2CCN(Cc3ccc(S(=O)(=O)F)cc3)CC2)n1`: the pIC50 was less than 4.52 on CSK (cell material: Lysate mix); less than 4.52 at UniProt O15530 (cell material: Lysate mix); less than 4.52 at UniProt Q13233 (cell material: Lysate mix); 4.6 at UniProt Q13164 (cell material: Lysate mix); less than 4.52 at MAP4K4 (cell material: Lysate mix); less than 4.52 at UniProt P27361 (cell material: Lysate mix). For the same compound, the pIC50 is 6.39 at MAST3 (cell material: Lysate mix); less than 4.52 at FGFR2; less than 4.52 on TAOK3 (cell material: Lysate mix); less than 4.52 at UniProt Q9HBH9 (cell material: Lysate mix); less than 4.52 on UniProt Q99759 (cell material: Lysate mix); less than 4.52 at ROCK2 (cell material: Lysate mix). Moreover, on TNK1, the pIC50 was determined as 7.07.

Turning to `C#CCNC(=O)c1cc(Nc2cc(C3CC3)[nH]n2)nc(N2CCN(Cc3ccc(S(=O)(=O)F)cc3)CC2)n1`, the pIC50 on CSK (cell material: Jurkat cells) is 5.55; on CSK (cell material: Jurkat lysate), less than 4.52; on CSK (cell material: Lysate mix) it was less than 4.52; at UniProt O15530 (cell material: Jurkat cells) it was 5.5; at UniProt O15530 (cell material: Jurkat lysate), less than 4.52; on UniProt O15530 (cell material: Lysate mix), less than 4.52. The pIC50 at UniProt Q13233 (cell material: Jurkat lysate) is less than 4.52; on UniProt Q13233 (cell material: Lysate mix), less than 4.52; at UniProt Q13164 (cell material: Jurkat cells) it was 5.69; at UniProt Q13164 (cell material: Jurkat lysate) it was less than 4.52; on UniProt Q13164 (cell material: Lysate mix) it was 5.14; on MAP4K4 (cell material: Jurkat cells) it was 5.9. In addition, the pIC50 on MAP4K4 (cell material: Jurkat lysate) was less than 4.52; on UniProt P27361 (cell material: Jurkat cells), 5.73; at UniProt P27361 (cell material: Jurkat lysate), less than 4.52; on MAST3 (cell material: Jurkat cells), 6.54; on MAST3 (cell material: Jurkat lysate) it was 6.27; on MAST3 (cell material: Lysate mix), 6.56. The pIC50 at FGFR2 was 4.94; at TAOK3 (cell material: Jurkat cells), 5.56; on TAOK3 (cell material: Jurkat lysate), less than 4.52; at TAOK3 (cell material: Lysate mix), less than 4.52; at UniProt Q9HBH9 (cell material: Jurkat cells), 5.15; at UniProt Q9HBH9 (cell material: Jurkat lysate), less than 4.52. In addition, the pIC50 at UniProt Q9HBH9 (cell material: Lysate mix) was less than 4.52; at UniProt Q99759 (cell material: Jurkat cells) it was 5.8; on UniProt Q99759 (cell material: Jurkat lysate), 4.72; on UniProt Q99759 (cell material: Lysate mix), 5.16; on ROCK2 (cell material: Jurkat cells) it was 4.76; on ROCK2 (cell material: Lysate mix), less than 4.52. Also, on TNK1, the pIC50 was 7.34.

Turning to `C#CCNC(=O)c1cc(Nc2cc(C)[nH]n2)nc(N2CCN(Cc3ccc(S(=O)(=O)F)cc3)CC2)n1`, the negative logarithm of the IC50 (pIC50) at CSK (cell material: Lysate mix), at UniProt O15530 (cell material: Lysate mix), at UniProt Q13233 (cell material: Lysate mix), at UniProt Q13164 (cell material: Lysate mix), on MAP4K4 (cell material: Lysate mix) and on UniProt P27361 (cell material: Lysate mix) was less than 4.52 throughout. Further, the pIC50 on MAST3 (cell material: Lysate mix) was 6.16; on FGFR2, less than 4.52; on TAOK3 (cell material: Lysate mix), less than 4.52; on UniProt Q9HBH9 (cell material: Lysate mix), less than 4.52; at UniProt Q99759 (cell material: Lysate mix) it was less than 4.52; at ROCK2 (cell material: Lysate mix), less than 4.52. For the same compound, the pIC50 at TNK1 was determined as 6.23.

In the case of `CCNC(=O)c1cc(Nc2cc(C3CC3)[nH]n2)nc(N2CCN(Cc3ccc(S(=O)(=O)F)cc3)CC2)n1`, the pIC50 is less than 4.52 on CSK (cell material: Lysate mix); less than 4.52 at UniProt O15530 (cell material: Lysate mix); less than 4.52 on UniProt Q13233 (cell material: Lysate mix); 5.16 at UniProt Q13164 (cell material: Lysate mix); less than 4.52 at MAP4K4 (cell material: Lysate mix); 4.94 on UniProt P27361 (cell material: Lysate mix). Also, the pIC50 on MAST3 (cell material: Lysate mix) was 6.22; at FGFR2 it was 5.24; on TAOK3 (cell material: Lysate mix), less than 4.52; at UniProt Q9HBH9 (cell material: Lysate mix), less than 4.52; on UniProt Q99759 (cell material: Lysate mix) it was 5.08; on ROCK2 (cell material: Lysate mix) it was less than 4.52. The compound further registered a pIC50 at TNK1 of 7.21.
